What all share (format): cell-based
Assay [1] deals with rat mesangium cells. The experiment in a line: Suppressive activity of galectin-3 on the cellular death of rat mesangium cells (MTS tetrazolium conversion). Conditions: 50 μg/ml galectin-3; presence and absence of 0.4 ng/ml TGF-β; day 1-4; FIG. 3. The protocol: Rat mesangium cells were separated from Sprague-Dawley rats according to the method of Striker et al. (Striker, G. E., et al., Lab. Invest. (1985) 53; 123-128). The separated rat mesangium cells were cultured at 37° C. in the presence of 5% CO2 in the wells of a 96-well plate using an essential medium (DMEM/F12 (1:1) culture medium containing 60 μg/ml penicillin, 100 μg/ml streptomycin, manufactured by Gibco BRL) supplemented with 10% fetal bovine serum. After culturing to semi-confluence, the cultured rat mesangium cells were washed with the essential medium, cultured for 2 days in the essential medium supplemented with 0.1% bovine serum albumin (Sigma), and then were further cultured for 1 to 4 days in the essential medium supplemented with 0.1% bovine serum albumin (Sigma) containing 0 or 50 μg/ml galectin-3 and 0 or 0.4 ng/ml TGF-β. On day 1, 2, 3, and 4 after the addition of galectin-3 and TGF-β, the amount of the cultured rat mesangium cells that survived in their respective wells were measured using as an index the conversion from MTS tetrazolium (Cell Titer 96 Aqueous one solution manufactured by Promega) to formazan by the living cells.

The test system of assay [2] is rat mesangium cells. The experiment in a line: Promoting effect of galectin-3 on collagen type IV production by mesangium cells (sandwich ELISA). As to conditions: 10 or 30 μg/ml galectin-3; 0-1.6 ng/ml TGF-β; day 3; FIG. 4. As for the experimental part: Rat mesangium cells were separated in a similar manner to that of Example 3. The separated mesangium cells were cultured at 37° C. in the presence of 5% CO2 in the wells of a 96-well plate using an essential medium (DMEM/F12 (1:1) culture medium containing 60 μg/ml penicillin, 100 μg/ml streptomycin, manufactured by Gibco BRL) supplemented with 10% fetal bovine serum. After culturing to confluence, the cultured rat mesangium cells were washed with the essential medium, cultured for 1 to 2 days in the essential medium supplemented with 0.1% bovine serum albumin (Sigma), and then were further cultured for 3 days in the essential medium supplemented with 0.1% bovine serum albumin (Sigma) containing 0, 10 or 30 μg/ml galectin-3 and 0, 0.1, 0.4 or 1.6 ng/ml TGF-β. On day 3 after the addition of galectin-3 and TGF-β, the amount of type IV collagen accumulated in the culture liquid was measured using a sandwich ELISA method that employed a goat anti-type IV collagen antibody as the immobilized antibody and a biotin-labeled goat anti-type IV collagen antibody (Chemicon) as the primary antibody. The amount of type IV collagen in the culture liquid of each well was normalized by dividing it by the amount of the living cells in each well determined in a similar manner to that described in Example 3.

The target in assay [3] is galectin-3 (Homo sapiens, UniProt P17931). The experiment in a line: Inhibition by galectin-3-binding inhibiting sugar of galectin-3-promoted collagen type IV production by rat mesangium cells. As to conditions: 0.4 μg/ml galectin-3, 0.25-2 mM LNFP-I, day 2, FIG. 6. As for the experimental part:
Rat mesangium cells were separated in a similar manner to that described in Example 3. The separated rat mesangium cells were cultured at 37° C. in the presence of 5% CO2 in the wells of a 96-well plate using an essential medium (DMEM/F12 (1:1) culture medium containing 60 μg/ml penicillin, 100 μg/ml streptomycin, manufactured by Gibco BRL) supplemented with 10% fetal bovine serum. […] On day 2 after the addition of galectin-3 and LNFP-I, the amount of type IV collagen accumulated in the culture liquid of each well was measured using a sandwich ELISA method that employed a goat anti-type IV collagen antibody (Chemicon) as an immobilized antibody and a biotin-labeled goat anti-type IV collagen antibody (Chemicon) as a primary antibody. The amount of type IV collagen in the culture medium of each well was normalized by dividing it by the amount of the living cells in each well determined in a similar manner to that described in Example 4.

galectin-3, sequence (P17931 whole entry, species assumed): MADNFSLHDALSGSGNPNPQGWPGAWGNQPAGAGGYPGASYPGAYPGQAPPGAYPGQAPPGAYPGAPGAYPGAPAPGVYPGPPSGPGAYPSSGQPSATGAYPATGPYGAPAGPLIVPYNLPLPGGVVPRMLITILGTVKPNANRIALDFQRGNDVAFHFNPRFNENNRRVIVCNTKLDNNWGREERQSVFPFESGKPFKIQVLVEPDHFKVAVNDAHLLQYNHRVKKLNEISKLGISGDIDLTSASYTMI

For the substance “galectin-3: protein of about 30 Kd belonging to the family of β-galactoside binding protein; a lectin”, the “cellular death of the rat mesangium cells (amount of surviving cells)” value in assay [1] is “suppress the cellular death”. For the same substance, the “production and/or accumulation of type IV collagen in culture liquid, normalized to living cells” value in assay [2] is listed as “promotes the production and/or the accumulation of type IV collagen”.

For the substance lacto-n-fucopentaose I, the “suppression of galectin-3-promoted production and/or accumulation of type IV collagen” value in assay [3] is “suppresses the promotion of the production and/or the accumulation of type IV collagen”.

(Values after patent publication US20080219973A1, “Pharmaceutical Composition Having Inhibitory Effect on Overproduction and Accumulation of Extracellular Matrix” (TEIJIN LIMITED, priority 1998, published 2008).)
